# Calls of active or inactive are those of the source. The rule behind the calls is not given here.
# Key:
# HUVEC [1] = assay: Induction of apoptosis in VEGF-stimulated HUVEC cells assessed as increase in early apoptotic cells at 250 nM measured after 48 hrs by AnnexinV-FITC/PI staining based flow cytometry; type: functional, cell-based; settings: Homo sapiens
# HUVEC [2] = assay: Induction of apoptosis in VEGF-stimulated HUVEC cells assessed as increase in late apoptotic cells at 250 nM measured after 48 hrs by AnnexinV-FITC/PI staining based flow cytometry; type: functional, cell-based; settings: Homo sapiens
# HUVEC [3] = assay: Induction of apoptosis in VEGF-stimulated HUVEC cells assessed as mitochondrial membrane potential alteration at 250 nM measured after 48 hrs by JC-1 staining based flow cytometry; type: functional, cell-based; settings: Homo sapiens
# HUVEC [4] = assay: Induction of apoptosis in VEGF-stimulated HUVEC cells assessed as increase in Bax/Bcl2 ratio at 250 nM measured after 48 hrs by western blot analysis; type: functional, cell-based; settings: Homo sapiens
# HUVEC [5] = assay: Induction of apoptosis in VEGF-stimulated HUVEC cells assessed as increase in cleaved caspase-3 protein expression at 250 nM measured after 48 hrs by western blot analysis; type: functional, cell-based; settings: Homo sapiens
# HUVEC [6] = assay: Induction of apoptosis in VEGF-stimulated HUVEC cells assessed as increase in cleaved caspase-9 protein expression at 250 nM measured after 48 hrs by western blot analysis; type: functional, cell-based; settings: Homo sapiens
# HUVEC [7] = assay: Antiangiogenic activity against VEGF-induced HUVEC cells assessed as reduction in cell migration at 5 uM measured after 48 hrs by Transwell assay; type: functional, cell-based; settings: Homo sapiens
# HUVEC [8] = assay: Antiangiogenic activity against VEGF-induced HUVEC cells assessed as reduction in wound healing at 5 uM measured after 48 hrs by scratch-wound healing assay; type: functional, cell-based; settings: Homo sapiens
# HUVEC [9] = assay: Antiangiogenic activity against VEGF-stimulated HUVEC cells assessed as reduction in number of sprouting tubules at 5 uM measured after 48 hrs by Matrigel assay based microscopic analysis; type: functional, cell-based; settings: Homo sapiens
# HUVEC [10] = assay: Induction of apoptosis in VEGF-stimulated HUVEC cells at 5 uM measured after 48 hrs by AnnexinV-FITC/PI staining based flow cytometry; type: functional, cell-based; settings: Homo sapiens
# HUVEC [11] = assay: Induction of apoptosis in VEGF-stimulated HUVEC cells assessed as mitochondrial membrane potential alteration at 5 uM measured after 48 hrs by JC-1 staining based flow cytometry; type: functional, cell-based; settings: Homo sapiens
# HUVEC [12] = assay: Induction of apoptosis in VEGF-stimulated HUVEC cells assessed as increase in Cytochrome c protein expression at 5 uM measured after 48 hrs by DAPI staining based confocal microscopy; type: functional, cell-based; settings: Homo sapiens
# HUVEC [13] = assay: Induction of apoptosis in VEGF-stimulated HUVEC cells assessed as increase in Bax/Bcl2 ratio at 5 uM measured after 48 hrs by western blot analysis; type: functional, cell-based; settings: Homo sapiens
# HUVEC [14] = assay: Induction of apoptosis in VEGF-stimulated HUVEC cells assessed as increase in cleaved caspase-3 protein expression at 5 uM measured after 48 hrs by western blot analysis; type: functional, cell-based; settings: Homo sapiens
# HUVEC [15] = assay: Downregulation of HIF-1alpha expression in VEGF-stimulated HUVEC cells at 5 uM measured after 48 hrs by western blot analysis; type: functional, cell-based; settings: Homo sapiens
# HUVEC [16] = assay: Inhibition of VEGFR2 expression in VEGF-induced HUVEC cells at 5 uM incubated for 48 hrs by DAPI staining based confocal microscopy; type: functional, cell-based; settings: Homo sapiens
# HUVEC [17] = assay: Cytotoxicity against HUVEC cells assessed as reduction in cell vaibility at 5 uM incubated for 48 hrs by MTT assay; type: cell-based; settings: human
# HUVEC [18] = assay: Induction of apoptosis in VEGF-stimulated HUVEC cells assessed as increase in cleaved caspase-9 protein expression at 5 uM measured after 48 hrs by western blot analysis; type: functional, cell-based; settings: Homo sapiens
# HUVEC [19] = assay: Downregulation of HIF-1alpha expression in VEGF-stimulated HUVEC cells at 5 uM measured after 48 hrs by DAPI staining based confocal microscopy; type: functional, cell-based; settings: Homo sapiens
# HUVEC [20] = assay: Effect on HIF-1beta expression in VEGF-stimulated HUVEC cells at 5 uM measured after 48 hrs by western blot analysis; type: functional, cell-based; settings: Homo sapiens
# [21] = target: Dual specificity mitogen-activated protein kinase kinase; MEK1/2 (Homo sapiens) (UniProt P36507+Q02750); assay: Inhibition of MEK1/2 in VEGF-stimulated HUVEC cells assessed as reduction in phosphorylated MEK1/2 level at 5 uM incubated for 48 hrs by immunoblot analysis; type: cell-based
# Chain of Dual specificity mitogen-activated protein kinase kinase; MEK1/2 (Homo sapiens) (P36507 whole entry, looked up): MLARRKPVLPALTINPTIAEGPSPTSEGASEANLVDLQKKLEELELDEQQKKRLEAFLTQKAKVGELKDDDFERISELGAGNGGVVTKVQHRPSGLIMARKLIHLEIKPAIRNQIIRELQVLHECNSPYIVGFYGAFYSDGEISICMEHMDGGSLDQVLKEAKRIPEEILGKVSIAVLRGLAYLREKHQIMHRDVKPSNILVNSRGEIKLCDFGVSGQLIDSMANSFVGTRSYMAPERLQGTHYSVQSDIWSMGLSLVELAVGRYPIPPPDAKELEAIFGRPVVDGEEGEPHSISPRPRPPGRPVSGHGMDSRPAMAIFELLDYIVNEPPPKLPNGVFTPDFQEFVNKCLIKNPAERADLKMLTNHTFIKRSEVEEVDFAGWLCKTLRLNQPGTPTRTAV
# Chain of Dual specificity mitogen-activated protein kinase kinase; MEK1/2 (Homo sapiens) (Q02750 whole entry, looked up): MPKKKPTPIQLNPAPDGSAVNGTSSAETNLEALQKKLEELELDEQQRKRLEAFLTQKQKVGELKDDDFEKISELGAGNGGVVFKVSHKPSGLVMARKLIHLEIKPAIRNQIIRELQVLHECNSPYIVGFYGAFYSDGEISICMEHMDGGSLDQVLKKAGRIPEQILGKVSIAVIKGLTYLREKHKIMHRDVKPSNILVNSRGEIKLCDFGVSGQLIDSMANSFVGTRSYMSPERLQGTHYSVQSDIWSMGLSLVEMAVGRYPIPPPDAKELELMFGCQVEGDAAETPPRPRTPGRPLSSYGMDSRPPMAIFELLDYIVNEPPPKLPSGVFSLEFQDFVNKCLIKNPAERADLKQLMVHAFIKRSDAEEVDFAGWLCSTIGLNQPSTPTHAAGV
# [22] = target: Mitogen-activated protein kinase; ERK1/ERK2 (Homo sapiens) (UniProt P27361+P28482); assay: Inhibition of ERK1/2 in VEGF-stimulated HUVEC cells assessed as reduction in phosphorylated […] at 5 uM incubated for 48 hrs by immunoblot analysis; type: cell-based
# Chain of Mitogen-activated protein kinase; ERK1/ERK2 (Homo sapiens) (P27361 whole entry, looked up): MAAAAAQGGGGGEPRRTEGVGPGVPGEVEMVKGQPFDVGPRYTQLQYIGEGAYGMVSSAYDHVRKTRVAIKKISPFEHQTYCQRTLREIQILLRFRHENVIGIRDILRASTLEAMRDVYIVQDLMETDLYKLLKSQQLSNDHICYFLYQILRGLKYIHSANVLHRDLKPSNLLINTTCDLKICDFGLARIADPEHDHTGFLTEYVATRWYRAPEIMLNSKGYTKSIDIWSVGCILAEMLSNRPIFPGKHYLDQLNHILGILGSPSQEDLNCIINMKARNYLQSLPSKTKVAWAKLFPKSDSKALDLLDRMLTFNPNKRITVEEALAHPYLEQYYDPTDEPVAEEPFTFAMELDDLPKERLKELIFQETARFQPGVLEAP
# Chain of Mitogen-activated protein kinase; ERK1/ERK2 (Homo sapiens) (P28482 whole entry, looked up): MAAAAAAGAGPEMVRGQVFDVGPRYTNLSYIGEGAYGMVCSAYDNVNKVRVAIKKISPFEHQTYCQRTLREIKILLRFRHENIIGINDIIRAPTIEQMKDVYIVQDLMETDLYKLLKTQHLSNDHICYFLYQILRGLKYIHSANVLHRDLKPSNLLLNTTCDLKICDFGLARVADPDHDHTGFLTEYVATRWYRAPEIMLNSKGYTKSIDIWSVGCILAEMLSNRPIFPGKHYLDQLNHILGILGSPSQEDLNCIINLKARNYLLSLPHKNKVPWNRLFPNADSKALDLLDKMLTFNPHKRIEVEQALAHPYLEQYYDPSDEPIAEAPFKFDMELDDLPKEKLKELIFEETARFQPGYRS
structure (smiles),measurement,setting,value
CN[C@@H]1C[C@H]2O[C@@](C)([C@@H]1OC)n1c3ccccc3c3c4c(c5c6ccccc6n2c5c31)C(=O)NC4,Activity,HUVEC [1],Active
same,Activity,HUVEC [2],Active
same,Activity,HUVEC [3],Active
same,Activity,HUVEC [4],Active
same,Activity,HUVEC [5],Active
same,Activity,HUVEC [6],Active
COc1ccc(-c2coc3cc(O[C@@H]4O[C@H](CO)[C@@H](O)[C@H](O)[C@H]4O)ccc3c2=O)cc1 [ONONIN],Activity,HUVEC [7],Active
same,Activity,HUVEC [8],Active
same,Activity,HUVEC [9],Active
same,Activity,HUVEC [10],Active
same,Activity,HUVEC [11],Active
same,Activity,HUVEC [12],Active
same,Activity,HUVEC [13],Active
same,Activity,HUVEC [14],Active
same,inhibition,HUVEC [15],Active
same,inhibition,HUVEC [16],Active
same,Activity,HUVEC [17],Non-Toxic
same,Activity,HUVEC [18],Active
same,inhibition,HUVEC [19],Active
same,Activity,HUVEC [20],inactive
same,inhibition,[21],Active
same,inhibition,[22],Active
